Results on 50 compounds are retold here after US20200288710A1, “SUBSTITUTED SULPHONAMIDES FOR CONTROLLING ANIMAL PESTS” (BAYER CROPSCIENCE AKTIENGESELLSCHAFT, priority 2016, published 2020).

The structures appear in SMILES notation.

Test [1] deals with Myzus persicae. Briefly: Myzus persicae oral test. It counts as in vivo. The conditions noted are these: 120 h, 20 ppm, oral uptake, after 5 days, read-out: efficacy. How it is done:
Myzus persicae—Oral Test Solvent: 100 parts by weight of acetone To produce a suitable preparation of active compound, 1 part by weight of active compound is dissolved using the specified parts by weight of solvent and made up with water until the desired concentration is attained. 50 μl of the active compound preparation are transferred into microtitre plates and made up to a final volume of 200 μl with 150 μl of IPL41 insect medium (33%+15% sugar). Subsequently, the plates are sealed with parafilm, which a mixed population of green peach aphids (Myzus persicae) within a second microtitre plate is able to puncture and imbibe the solution through it. After 5 days, the efficacy in % is determined. 100% means that all the aphids have been killed; 0% means that no aphids have been killed.

Test [2] concerns Myzus persicae. Briefly: Myzus persicae spray test (Chinese cabbage leaf discs). The class given is in vivo. The conditions noted are these: foliar, 120 h, 500 g/ha, after 5-6 days, read-out: efficacy. How it is done:
Myzus persicae—Spray Test Solvent: 78 parts by weight of acetone • • 1.5 parts by weight of dimethylformamide Emulsifier: alkylaryl polyglycol ether To produce a suitable preparation of active compound, 1 part by weight of active compound is dissolved using the specified parts by weight of solvent and made up with water containing an emulsifier concentration of 1000 ppm until the desired concentration is attained. To produce further test concentrations, the formulation is diluted with emulsifier-containing water. Discs of Chinese cabbage leaves (Brassica pekinensis) infested by all stages of the green peach aphid (Myzus persicae) are sprayed with an active compound preparation of the desired concentration. After 5-6 days, the efficacy in % is determined. 100% means that all the aphids have been killed; 0% means that no aphids have been killed.

Take `COc1cccc(S(=O)(=O)NC(=O)c2cn(C)c(-c3c(F)cccc3F)n2)c1` [Example 388]: in the test with Myzus persicae [1], the pest or weed control at 20 ppm came out at 100%. In addition, the pest or weed control at 500 g/ha with Myzus persicae [2] was 90%. Regarding `Cc1cc(C(=O)NS(=O)(=O)c2c(Cl)cccc2Cl)nn1-c1ncccc1Cl` [Example 268], the pest or weed control at 20 ppm with Myzus persicae [1] came to 100%. Moreover, the pest or weed control at 500 g/ha with Myzus persicae [2] was determined as 90%. The corresponding values for `COc1ccc(Br)cc1S(=O)(=O)NC(=O)c1cn(C)c(-c2cccc(Cl)c2Cl)n1` [Example 559] are 100% and 100%. The corresponding values for `COc1ccc(F)c(S(=O)(=O)NC(=O)c2cn(C)c(-c3c(F)cccc3Cl)n2)c1` [Example 157] are 100% and 100%. Consider `COc1ccc(OC)c(S(=O)(=O)NC(=O)c2cn(C)c(-c3c(F)cccc3F)n2)c1` [Example 19], for which the pest or weed control at 20 ppm with Myzus persicae [1] was 100%. For the same compound, the pest or weed control at 500 g/ha in the test with Myzus persicae [2] turned out to be 90%. Turning to `COc1ccc(Cl)c(S(=O)(=O)NC(=O)c2nc(-c3c(F)cccc3F)n(C)n2)c1` [Example 12], the pest or weed control at 20 ppm with Myzus persicae [1] stood at 90%. For the same compound, the pest or weed control at 500 g/ha in the test on Myzus persicae [2] was 90%.

In the case of `Cn1cc(C(=O)NS(=O)(=O)c2ccccc2F)nc1-c1c(F)cccc1F` [Example 117], in the test on Myzus persicae [1], the pest or weed control at 20 ppm was found to be 90%. The pest or weed control at 500 g/ha with Myzus persicae [2] turned out to be 100%. The corresponding values for `CCc1ccc(OC)c(S(=O)(=O)NC(=O)c2cn(C)c(-c3ccccc3Cl)n2)c1` [Example 278] are 100% and 100%. The corresponding values for `COc1ccc(Cl)c(C)c1S(=O)(=O)NC(=O)c1cn(C)c(-c2c(F)cccc2F)n1` [Example 433] are 100% and 90%. The corresponding values for `COc1ccc(F)cc1S(=O)(=O)NC(=O)c1cn(C)c(-c2ncccc2Cl)n1` [Example 591] are 100% and 100%. As to `Cn1cc(C(=O)NS(=O)(=O)c2cnccc2Cl)nc1-c1ccccc1Cl` [Example 220], the pest or weed control at 20 ppm in the test on Myzus persicae [1] turned out to be 100%. In the test with Myzus persicae [2], the pest or weed control at 500 g/ha came out at 100%. Turning to `COc1ccc(F)cc1S(=O)(=O)NC(=O)c1cn(C)c(-c2cccc(Cl)c2Cl)n1` [Example 463], the pest or weed control at 20 ppm with Myzus persicae [1] was 100%. The pest or weed control at 500 g/ha in the test with Myzus persicae [2] was determined as 100%. Take `Cn1cc(C(=O)NS(=O)(=O)c2ccccc2Br)nc1-c1ncccc1F` [Example 564]: the pest or weed control at 20 ppm with Myzus persicae [1] was determined as 100%. Also, in the test on Myzus persicae [2], the pest or weed control at 500 g/ha worked out at 100%. Consider `CCc1cccc(OS(C)(=O)=O)c1S(=O)(=O)NC(=O)c1cn(C)c(-c2c(F)cccc2F)n1` [Example 342], for which the pest or weed control at 20 ppm with Myzus persicae [1] worked out at 100%. In the test with Myzus persicae [2], the pest or weed control at 500 g/ha turned out to be 100%. On to `COc1ccccc1S(=O)(=O)NC(=O)c1cn(C)c(-c2ccccc2Cl)n1` [Example 59], for which the pest or weed control at 20 ppm with Myzus persicae [1] came to 100%. In addition, in the test on Myzus persicae [2], the pest or weed control at 500 g/ha was 90%.

`Cn1c(C(=O)NS(=O)(=O)c2ccccc2Br)cnc1-c1c(F)cccc1F` [Example 162]: the pest or weed control at 20 ppm in the test with Myzus persicae [1] is 100%. The pest or weed control at 500 g/ha in the test on Myzus persicae [2] turned out to be 90%. The corresponding values for `CCn1cc(C(=O)NS(=O)(=O)c2ccccc2Cl)nc1-c1c(F)cccc1F` [Example 571] are 100% and 100%. The corresponding values for `COc1ccccc1S(=O)(=O)NC(=O)c1cn(C)c(-c2c(F)cc(F)cc2F)n1` [Example 7] are 90% and 90%. The corresponding values for `Cc1ccccc1-c1nc(C(=O)NS(=O)(=O)c2ccccc2C(F)(F)F)cn1C` [Example 28] are 100% and 100%.

As for `CCc1ccccc1S(=O)(=O)NC(=O)c1cc(C)n(-c2ncccc2Br)n1` [Example 298], in the test on Myzus persicae [1], the pest or weed control at 20 ppm is 100%. Also, in the test with Myzus persicae [2], the pest or weed control at 500 g/ha stood at 100%. On to `COc1ccccc1S(=O)(=O)NC(=O)c1cn(C)c(-c2c(F)cccc2Cl)n1` [Example 111], for which the pest or weed control at 20 ppm in the test on Myzus persicae [1] is 100%. Further, the pest or weed control at 500 g/ha in the test on Myzus persicae [2] was 100%. Regarding `Cn1cc(C(=O)NS(=O)(=O)c2ccccc2Cl)nc1-c1ccccc1S(C)(=O)=O` [Example 483], the pest or weed control at 20 ppm in the test with Myzus persicae [1] came out at 100%. For the same compound, in the test on Myzus persicae [2], the pest or weed control at 500 g/ha worked out at 90%. The corresponding values for `COc1ccc(Br)c(S(=O)(=O)NC(=O)c2cn(C)c(-c3ncccc3F)n2)c1` [Example 607] are 100% and 90%. The corresponding values for `Cc1ccccc1S(=O)(=O)NC(=O)c1cn(C)c(-c2cccnc2Cl)n1` [Example 491] are 100% and 100%. With `CCn1cc(S(=O)(=O)NC(=O)c2cn(C)c(-c3c(F)cccc3F)n2)c(C)n1` [Example 181], the pest or weed control at 20 ppm in the test with Myzus persicae [1] worked out at 90%. For the same compound, the pest or weed control at 500 g/ha with Myzus persicae [2] is 100%. The corresponding values for `Cc1ccsc1S(=O)(=O)NC(=O)c1cn(C)c(-c2ncccc2Cl)n1` [Example 592] are 100% and 100%.

In the case of `Cc1ccccc1S(=O)(=O)NC(=O)c1nc(-c2c(F)cccc2F)n(C)n1` [Example 159], the pest or weed control at 20 ppm in the test with Myzus persicae [1] was 100%. Further, the pest or weed control at 500 g/ha in the test with Myzus persicae [2] is 90%.

Consider `Cn1cc(C(=O)NS(=O)(=O)c2ccccc2Cl)nc1-c1ccccc1C(F)(F)F` [Example 115], for which the pest or weed control at 20 ppm in the test on Myzus persicae [1] is 90%. Besides, the pest or weed control at 500 g/ha in the test with Myzus persicae [2] is 100%.

Consider `CCS(=O)(=O)NC(=O)c1cn(-c2ccccc2)c(-c2ccccc2Cl)n1` [Example 75], for which the pest or weed control at 20 ppm in the test with Myzus persicae [1] was determined as 90%. For the same compound, in the test on Myzus persicae [2], the pest or weed control at 500 g/ha was 100%. The corresponding values for `CCn1cc(C(=O)NS(=O)(=O)c2ccccc2C)nc1-c1ccccc1Cl` [Example 22] are 100% and 100%. The corresponding values for `Cc1ccccc1S(=O)(=O)NC(=O)c1cn(C)c(-c2c(F)cccc2Cl)n1` [Example 110] are 100% and 90%.

As to `COc1ccc(Cl)c(S(=O)(=O)NC(=O)c2cn(C)c(-c3ccccc3F)n2)c1` [Example 95], in the test with Myzus persicae [1], the pest or weed control at 20 ppm was determined as 100%. Further, the pest or weed control at 500 g/ha in the test on Myzus persicae [2] turned out to be 90%. The corresponding values for `Cn1cc(C(=O)NS(=O)(=O)c2ccccc2Cl)nc1-c1ccccc1F` [Example 94] are 100% and 100%.

Regarding `Cc1ccc(F)cc1S(=O)(=O)NC(=O)c1cn(C)c(-c2ncccc2F)n1` [Example 562], the pest or weed control at 20 ppm in the test with Myzus persicae [1] stood at 100%. Further, in the test with Myzus persicae [2], the pest or weed control at 500 g/ha was found to be 100%. For the compound `COc1ccc(Cl)c(S(=O)(=O)NC(=O)c2cc(C)n(-c3ncccc3Br)n2)c1` [Example 301], in the test with Myzus persicae [1], the pest or weed control at 20 ppm worked out at 90%. For the same compound, the pest or weed control at 500 g/ha in the test on Myzus persicae [2] stood at 100%. The corresponding values for `COc1ccccc1S(=O)(=O)NC(=O)c1cn(C)c(-c2c(F)cccc2F)n1` [Example 116] are 100% and 100%. The corresponding values for `Cn1cc(C(=O)NS(=O)(=O)c2ccccc2Cl)nc1-c1cccnc1Cl` [Example 490] are 100% and 90%.

With `Cn1cc(C(=O)NS(=O)(=O)c2ccccc2C(F)(F)F)nc1-c1c(F)cccc1F` [Example 26], in the test with Myzus persicae [1], the pest or weed control at 20 ppm was 100%. In addition, in the test with Myzus persicae [2], the pest or weed control at 500 g/ha is 100%.

As to `Cn1cc(C(=O)NS(=O)(=O)c2c(Cl)cccc2Br)nc1-c1ncccc1Cl` [Example 589], the pest or weed control at 20 ppm in the test on Myzus persicae [1] is 100%. The pest or weed control at 500 g/ha with Myzus persicae [2] was determined as 100%. For `COc1ccccc1S(=O)(=O)NC(=O)c1cn(C)c(-c2ccccc2[N+](=O)[O-])n1` [Example 529], the pest or weed control at 500 g/ha in the test on Myzus persicae [2] came to 100%.

On to `CN(C)S(=O)(=O)NC(=O)c1cn(C)c(-c2ccccc2Cl)n1` [Example 204], for which the pest or weed control at 500 g/ha in the test with Myzus persicae [2] stood at 100%. On the same count and under the same terms, as for `COc1ccccc1S(=O)(=O)NC(=O)c1cn(C)c(-c2cc(F)ccc2F)n1` [Example 526], the figure is 90%; as for `CCc1[nH]c(-c2ccccc2Cl)nc1C(=O)NS(=O)(=O)C(C)C` [Example 121], 90%. For `COc1ccc(Cl)c(S(=O)(=O)NC(=O)c2cnc(-c3c(F)cccc3F)n2C)c1` [Example 160], in the test with Myzus persicae [2], the pest or weed control at 500 g/ha came to 90%. The same measure, in the same setting: as for `CCc1[nH]c(-c2cccc(OC)c2)nc1C(=O)NS(=O)(=O)c1ccccc1Cl` [Example 122], the figure is 90%.

Take `Cn1cc(C(=O)NS(=O)(=O)c2cccs2)nc1-c1c(F)cccc1F` [Example 349]: the pest or weed control at 500 g/ha with Myzus persicae [2] came out at 100%.

Take `Cn1cc(C(=O)NS(=O)(=O)c2cc(Cl)cc(Cl)c2)nc1-c1ccccc1Cl` [Example 166]: in the test on Myzus persicae [2], the pest or weed control at 500 g/ha is 90%. On to `Cn1cc(C(=O)NS(=O)(=O)CC(F)(F)F)nc1-c1ccccc1F` [Example 90], for which the pest or weed control at 500 g/ha in the test with Myzus persicae [2] was determined as 100%. Same read-out and setting: with `Cc1[nH]c(C(=O)NS(=O)(=O)c2ccccc2Cl)nc1-c1c(F)cccc1F` [Example 145] the figure was 90%; with `Cc1nc(Cl)sc1S(=O)(=O)NC(=O)c1cn(C)c(-c2c(F)cccc2F)n1` [Example 346], 90%.
